Results reported in ChEMBL document CHEMBL1127350, “The squalestatins: novel inhibitors of squalene synthase. Enzyme inhibitory activities and in vivo evaluation of C1-modified analogues” (J Med Chem, 1994).
Converted amounts (≈) assume the structure as drawn. “And” between values parts separate entries of the source, which are not always exact repeats. Identical values can stand only once.

Key:
Aspergillus niger = test: Compound was tested for an antifungal whole cell assay to obtain minimum inhibitory concentration against Aspergillus niger 48238; assay type: functional
Cryptococcus neoformans = test: Compound was tested for an antifungal whole cell assay to obtain minimum inhibitory concentration against Cryptococcus neoformans 2867E; assay type: functional
Squalene synthase = molecular target: T1, Squalene synthase (Rattus norvegicus, UniProt Q02769); test: Inhibition of juvenile male rat liver microsomal squalene synthase
T1 sequence (Q02769 whole entry): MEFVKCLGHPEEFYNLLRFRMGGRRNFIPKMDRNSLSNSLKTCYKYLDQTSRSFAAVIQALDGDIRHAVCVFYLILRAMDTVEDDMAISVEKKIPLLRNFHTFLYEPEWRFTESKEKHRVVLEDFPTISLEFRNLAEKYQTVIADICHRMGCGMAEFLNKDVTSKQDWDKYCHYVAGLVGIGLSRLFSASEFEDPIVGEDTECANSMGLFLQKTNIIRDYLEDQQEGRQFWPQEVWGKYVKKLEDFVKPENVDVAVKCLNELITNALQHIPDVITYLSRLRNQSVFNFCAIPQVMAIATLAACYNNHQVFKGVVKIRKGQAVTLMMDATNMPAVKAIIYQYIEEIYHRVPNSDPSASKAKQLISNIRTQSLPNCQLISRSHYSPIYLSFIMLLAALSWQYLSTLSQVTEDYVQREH

Candida albicans = test: Compound was tested for an antifungal whole cell assay to obtain minimum inhibitory concentration against Candida albicans C316; assay type: functional
[1] = Compound was tested on serum cholesterol levels in marmosets after 7 days at 1(mg/kg/day) intravenous administration in 6 animals; assay type: functional, Callitrichinae
[2] = Compound was tested on serum cholesterol levels in marmosets after 2 days at intravenous 1 (mg/kg) dose in 6 animals; assay type: functional, Callitrichinae
[3] = Compound was tested on serum cholesterol levels in marmosets after 3 days at intravenous 0.33 (mg/kg) dose in 6 animals; assay type: functional, Callitrichinae
[4] = Compound was tested on serum cholesterol levels in marmosets after 7 days at 1(mg/kg/day) intravenous administration in 8 animals; assay type: functional, Callitrichinae
[5] = (§1) Compound was tested on serum cholesterol levels in marmosets after 7 days at intravenous 0.11 (mg/kg) dose in 6 animals; assay type: functional, Callitrichinae
Rattus norvegicus = test: Tested for inhibition of cholesterol biosynthesis by intravenous administration to rats; assay type: functional
[6] = as §1; assay type: functional, Callitrichinae; remark: listed apart in the source
[7] = Aspergillus niger, read-out: MIC
[8] = Cryptococcus neoformans, read-out: MIC
[9] = Candida albicans, read-out: MIC

| Compound | IC50 (Squalene synthase) | MIC (Aspergillus niger; [7]) | MIC (Cryptococcus neoformans; [8]) | MIC (Candida albicans; [9]) | further results |
| --- | --- | --- | --- | --- | --- |
| CC[C@H](C)C[C@H](C)CCC(=O)O[C@@H]1[C@@H](O)[C@@]2(CCC(C)[C@H](OC(C)=O)[C@@H](C)Cc3ccccc3)O[C@H](C(=O)O)[C@@](O)(C(=O)O)[C@]1(C(=O)O)O2 (stereo in doubt; 2d) | 3 nM |  |  |  | MIC (Aspergillus niger): 8 µg/mL (≈ 11.5 µM); MIC (Cryptococcus neoformans): 0.5 µg/mL (≈ 0.72 µM); MIC (Candida albicans): 16 µg/mL (≈ 23 µM) |
| CC[C@H](C)C[C@H](C)CCC(=O)O[C@@H]1[C@@H](O)[C@@]2(CCC(C)C[C@@H](C)Cc3ccccc3)O[C@H](C(=O)O)[C@@](O)(C(=O)O)[C@]1(C(=O)O)O2 (stereo not given in full) |  | 16 µg/mL (≈ 25.1 µM) | 1 µg/mL (≈ 1.57 µM) | 31 µg/mL (≈ 48.7 µM) |  |
| CC(=O)O[C@@H](C(C)CC[C@]12O[C@H](C(=O)O)[C@@](O)(C(=O)O)[C@](C(=O)O)(O1)[C@H](O)[C@H]2O)[C@@H](C)Cc1ccccc1 (stereo not given in full) |  | 125 µg/mL (≈ 231 µM) | 125 µg/mL (≈ 231 µM) | 125 µg/mL (≈ 231 µM) |  |
| CC[C@H](C)C[C@H](C)CCC(=O)O[C@@H]1[C@@H](O)[C@@]2(C/C=C(\C)[C@H](OC(C)=O)[C@@H](C)Cc3ccccc3)O[C@H](C(=O)O)[C@@](O)(C(=O)O)[C@]1(C(=O)O)O2 | 22 nM | 31 µg/mL (≈ 44.7 µM) | 8 µg/mL (≈ 11.5 µM) | 125 µg/mL (≈ 180 µM) |  |
| CC[C@H](C)C[C@H](C)CCC(=O)O[C@@H]1[C@@H](O)[C@@]2(CCC(C)[C@H](OC(C)=O)[C@@H](C)Cc3ccccc3)O[C@H](C(=O)O)[C@@](O)(C(=O)O)[C@]1(C(=O)O)O2 (stereo in doubt; 2f) | 165 nM |  |  |  | MIC (Aspergillus niger): 125 µg/mL (≈ 180 µM); MIC (Cryptococcus neoformans): 4 µg/mL (≈ 5.76 µM); MIC (Candida albicans): 125 µg/mL (≈ 180 µM) |
| C=C(CC[C@]12O[C@H](C(=O)O)[C@@](O)(C(=O)O)[C@](C(=O)O)(O1)[C@H](OC(=O)CC[C@@H](C)C[C@@H](C)CC)[C@H]2O)[C@H](OC(C)=O)[C@@H](C)Cc1ccccc1 | 13 nM | 1 µg/mL (≈ 1.44 µM) | 0.1 µg/mL (≈ 0.144 µM) | 8 µg/mL (≈ 11.5 µM) | Cholesterol reduction [1]: 72% |
| C/C(=C\[C@@H](C)Cc1ccccc1)CC[C@]12O[C@H](C(=O)O)[C@@](O)(C(=O)O)[C@](C(=O)O)(O1)[C@H](O)[C@H]2O | 200 nM |  |  |  |  |

Continued, in another order:

| IC50 (Squalene synthase) | MIC (Aspergillus niger; [7]) | MIC (Cryptococcus neoformans; [8]) | MIC (Candida albicans; [9]) | Compound | further results |
| --- | --- | --- | --- | --- | --- |
| 252 nM | 62 µg/mL (≈ 125 µM) | 62 µg/mL (≈ 125 µM) | 62 µg/mL (≈ 125 µM) | C=C(CC[C@]12O[C@H](C(=O)O)[C@@](O)(C(=O)O)[C@](C(=O)O)(O1)[C@H](O)[C@H]2O)[C@H](O)[C@@H](C)Cc1ccccc1 |  |
|  | > 125 µg/mL | > 125 µg/mL | > 125 µg/mL | C=C(CC[C@]12O[C@H](C(=O)O)[C@@](O)(C(=O)O)[C@](C(=O)O)(O1)[C@H](O)[C@H]2O)[C@H](OC(C)=O)[C@@H](C)Cc1ccccc1 | Cholesterol reduction [1]: 56% |
|  | 16 µg/mL (≈ 24.7 µM) | 1 µg/mL (≈ 1.54 µM) | 125 µg/mL (≈ 193 µM) | C=C(CC[C@]12O[C@H](C(=O)O)[C@@](O)(C(=O)O)[C@](C(=O)O)(O1)[C@H](OC(=O)/C=C/[C@@H](C)C[C@@H](C)CC)[C@H]2O)[C@H](O)[C@@H](C)Cc1ccccc1 | Cholesterol reduction [1]: 59% |
|  | 31 µg/mL (≈ 47.5 µM) | 8 µg/mL (≈ 12.3 µM) | 125 µg/mL (≈ 192 µM) | CC[C@H](C)C[C@H](C)CCC(=O)O[C@@H]1[C@@H](O)[C@@]2(CCC(C)[C@H](O)[C@@H](C)Cc3ccccc3)O[C@H](C(=O)O)[C@@](O)(C(=O)O)[C@]1(C(=O)O)O2 (stereo not given in full) |  |
| 65 nM | 31 µg/mL (≈ 49 µM) | 2 µg/mL (≈ 3.16 µM) | 31 µg/mL (≈ 49 µM) | CC[C@H](C)C[C@H](C)/C=C/C(=O)O[C@@H]1[C@@H](O)[C@@]2(C/C=C(\C)CC(C)Cc3ccccc3)O[C@H](C(=O)O)[C@@](O)(C(=O)O)[C@]1(C(=O)O)O2 (single isomer, unassigned) |  |
|  | 16 µg/mL (≈ 23.2 µM) | 0.5 µg/mL (≈ 0.724 µM) | 8 µg/mL (≈ 11.6 µM) | C=C(CC[C@]12O[C@H](C(=O)O)[C@@](O)(C(=O)O)[C@](C(=O)O)(O1)[C@H](OC(=O)/C=C/[C@@H](C)C[C@@H](C)CC)[C@H]2O)[C@H](OC(C)=O)[C@@H](C)Cc1ccccc1 | Cholesterol reduction [2]: 47% and 53% and 60%; Cholesterol reduction [3]: 53% and 63% and 62%; Cholesterol reduction [4]: 86%; Cholesterol reduction [5]: 37% and 41%; ED50 (Rattus norvegicus): 0.1 mg/kg; Cholesterol reduction [6]: 39% |
| 415 nM | 125 µg/mL (≈ 259 µM) | 125 µg/mL (≈ 259 µM) | 125 µg/mL (≈ 259 µM) | CC(CC[C@]12O[C@H](C(=O)O)[C@@](O)(C(=O)O)[C@](C(=O)O)(O1)[C@H](O)[C@H]2O)C[C@@H](C)Cc1ccccc1 (stereo not given in full) |  |
| 32 nM | 16 µg/mL (≈ 25.3 µM) | 4 µg/mL (≈ 6.32 µM) | 31 µg/mL (≈ 49 µM) | CC[C@H](C)C[C@H](C)/C=C/C(=O)O[C@@H]1[C@@H](O)[C@@]2(CC/C(C)=C/[C@@H](C)Cc3ccccc3)O[C@H](C(=O)O)[C@@](O)(C(=O)O)[C@]1(C(=O)O)O2 |  |
